Test results taken from patent US9145351B2, “Azole derivatives, methods for producing the same, intermediate thereof, agro-horticultural agents” (KUREHA CORPORATION, priority 2009, dated 2015).

System: Puccinia recondita
Experiment: Efficacy test against wheat brown rust, 2 mg/L (Experimental Example 8)
Assay type: in vivo
Design: key: 0: No onset; 0.5: Less than 1%; 1% or higher and less than 5%; 2: 5% or higher and less than 10%; 10% or higher and less than 30%; 4: 30% or higher and less than 50%; 50% or higher
Conditions: sprayed at 1,000 L/ha, concentration printed 0.02 mg/L, 9 to 14 days after inoculation
Experimental: Onto a wheat plant (variety: […] The sprayed leaves were air-dried, and inoculated with spore suspension of Puccinia recondita (adjusted at 200 spores/vision, […] was added at 60 ppm) by spraying, and kept at 25 degrees C. and a high humidity for 48 hours. Thereafter, the plant was kept in a greenhouse. Nine to 14 days after inoculation, the wheat brown rust lesion degree was investigated, and the protective value was calculated by the following equation. Protective value (%)=(1-lesion degree in sprayed plot/lesion degree in unsprayed plot)×100

C[C@]1(CCl)CC[C@@H](Cc2ccc(F)cc2)[C@]1(O)Cn1cncn1 (racemic) [Compound I-77, (1RS,2SR,5SR)-2-chloromethyl-5-(4-fluorobenzyl)-2-methyl-1-(1H-1,2,4-triazol-1-ylmethyl)cyclopentanol]
degree (wheat brown rust lesion degree): 0
